The nature of data set [1]: Solubility of insecticides in methylene bispropionate. The data set is classed as physicochemical. The following applies: solvent methylene bispropionate. The procedure: Methylene bispropionate was tested as a solvent for various insecticides. […] O,S-dimethylN-acetyl phosphoramidothioate was soluble in methylene bispropionate to the extent of 5 percent by weight. Chlordane was soluble in methylene bispropionate to the extent of at least 75 percent by weight.

A further data set deals with high moisture corn. The experiment in a line: Preservation of high moisture corn in ventilated cans (time until temperature exceeds room temperature). As to conditions: for Weeks Effective: corn 25 percent moisture, 70-72 F. How it is done: High moisture corn (25 percent moisture) was treated with various methylene and polyoxymethylene esters of propionic or acetic acid of various dosages. The esters were applied to the corn in a mixer for one minute at 32 RPM. Three replicate two gallon ventilated cans were filled with the treated corn. The cans were then held at a temperature of 70°-72° F. Temperature readings were taken semi-weekly by means of thermocouples in the center of each can. When the temperature exceeded constant room temperature for at least an 8-hour period the treatment was considered broken.

The next data set has as its system fungal growth. The experiment in a line: Visual fungal growth rating on treated crops in ventilated cans. Set-up: key: 1 = no growth, 10 = heavy uniform growth. As to conditions: 1-10 basis. The procedure:
Methylene bispropionate was applied to a variety of crops at various dosages by spraying or in a mixer. Two ventilated cans were filled with each treated crop. The cans were then maintained at 70° F. ±5° F. Each can was periodically visually observed for fungal growth and the observations were translated into a growth rating on a 1-10 basis; 1 indicating no growth and 10 indicating heavy uniform growth. For comparison, two samples of each untreated crop were also tested. The crops employed, the percent weight methylene bispropionate (MBP) based on weight crop, and the fungal rating 2, 7-8 and 28-29 days after treatment are tabulated in Table III.

A further data set deals with All Species. In words: Control of seed- and soil-borne pathogens during storage of corn seeds (Table IV), all species. The data set is classed as cell-based, Rhizopus, Penicillium, Fusarium. The following applies: relative to untreated check. The procedure: A variety of bis-esters was tested for the control of seed- and soil-borne pathogens during storage of corn seeds (Zea mays) by the following procedure.
(§1) A small amount of acetone was added to the bis-ester to make specific volume, plus a small portion of emulsifier making it into a slurry. This preparation was diluted with water to the desired concentration. Solution was then evenly distributed on the wall of a glass jar. High moisture feedcorn with natural infection was stored frozen after harvest until used for this test. The corn seeds were rolled in the jar until they were coated and the solution was completely absorbed on them.
(§2) Following the treatment, the corn seeds were plated on Potato Dextrose Agar plates. For comparison, untreated corn seeds were also plated. Propionic acid was also tested for comparison.
The percentage control of all species was based on the total sum average of mycelial growth in millimeters of all species in the treated seeds relative to the untreated check. The fast growing Rhizopus was evaluated 7 days after treatment, the other fungi after 14 days.

Another data set concerns Rhizopus sp. The experiment in a line: Concentration for 90% control of pathogen on corn seeds (Table V), Rhizopus sp. The data set is classed as cell-based. The following applies: 5 days after treatment. How it is done: as §1, §2
(§3) A variety of bis-esters was tested for the control of seed- and soil-borne pathogens during the storage of corn seeds (Zea mays) by the procedure of Example 11. For comparison, propionic acid was also tested.
(§4) Control of each pathogen was determined by mycelial growth in millimeters in the treated seeds relative to untreated seeds. Mycelial growth of Rhizopus species and Fusarium species was evaluated 5 days after treatment. Mycelial growth in Aspergillus niger was evaluated 14 days after treatment.
(§5) The bis-ester tested and the concentration of active ingredient in ounces per 100 lbs. of corn seeds for 90 percent control of each pathogen species are tabulated in Table V.

The next data set deals with Fusarium sp. In words: Concentration for 90% control of pathogen on corn seeds (Table V), Fusarium sp. The data set is classed as cell-based. As to conditions: 5 days after treatment. How it is done: as §1, §2, §3, §4, §5
The test system of data set [2] is Aspergillus niger. In words: Concentration for 90% control of pathogen on corn seeds (Table V), Aspergillus niger. The data set is classed as cell-based. The following applies: 14 days after treatment. The procedure:
as §1, §2, §3, §4, §5

A short description of data set [3]: Acute oral toxicity in white rats. The following applies: rat, in vivo. An excerpt: Methylene bispropionate was subjected to acute oral toxicity studies using white rats.
Another data set concerns Candida albicans. The experiment in a line: Antimicrobial activity of MBP on nutrient agar, Candida albicans. The data set is classed as cell-based. The following applies: read-out: Germistatic Concentration of MBP. The procedure: (§6) Microbiological tests were conducted to determine the antimicrobial activity of methylene bispropionate (MBP). The minimum concentration of MBP, capable of inhibiting the growth of five species of bacteria, two species of mold and one species of yeast was determined. Petri plates containing nutrient agar and various concentrations of MBP were inoculated with each of the test species. The identification of these organisms and the effective concentration of MBP inhibiting growth are shown below: […]

For the next data set, the system named is Staphylococcus aureus. In words: Antimicrobial activity of MBP on nutrient agar, Staphylococcus aureus. The data set is classed as cell-based. The following applies: read-out: Germistatic Concentration of MBP. The procedure: as §6
In the next data set the test system is Escherichia coli. The experiment in a line: Antimicrobial activity of MBP on nutrient agar, Escherichia coli. The following applies: read-out: Germistatic Concentration of MBP. Format: cell-based. How it is done: as §6
Another data set has as its system Streptococcus pyogenes. The experiment in a line: Antimicrobial activity of MBP on nutrient agar, Streptococcus pyogenes. The data set is classed as cell-based. The following applies: read-out: Germistatic Concentration of MBP. The procedure: as §6
Data set [4] concerns Aspergillus niger. In words: Antimicrobial activity of MBP on nutrient agar, Aspergillus niger. The data set is classed as cell-based. The following applies: read-out: Germistatic Concentration of MBP. How it is done:
as §6

Data set [5] has as its system Trichophyton interdigitale. In words: Antimicrobial activity of MBP on nutrient agar, Trichophyton interdigitale. The data set is classed as cell-based. The following applies: read-out: Germistatic Concentration of MBP. The procedure: as §6
In another data set the test system is Pseudomonas aeruginosa. The experiment in a line: Antimicrobial activity of MBP on nutrient agar, Pseudomonas aeruginosa. The data set is classed as cell-based. As to conditions: read-out: Germistatic Concentration of MBP. How it is done:
as §6

A further data set relates to Bacillus subtilis. In words: Antimicrobial activity of MBP on nutrient agar, Bacillus subtilis. The data set is classed as cell-based. As to conditions: read-out: Germistatic Concentration of MBP. The procedure:
as §6

≈ marks a conversion by molar mass, not a printed value.

With `ClC1=C(Cl)C2(Cl)C3C(Cl)C(Cl)CC3C1(Cl)C2(Cl)Cl` (stereo not drawn) [Chlordane], the “solubility in methylene bispropionate” value in data set [1] is listed as “at least 75 percent by weight”.
Consider `CCOC(=O)CC(SP(=S)(OC)OC)C(=O)OCC` (stereo not drawn) [Malathion, S-[1,2-bis(ethoxycarbonyl)ethyl]-O,O-dimethyl phosphorodithioate], for which, in data set [1], the “miscibility with methylene bispropionate (in words)” value is “miscible with methylene bispropionate in all proportions”.
Same read-out and setting: the entry for `CCOP(=S)(OCC)Oc1ccc([N+](=O)[O-])cc1` [parathion, O,O-diethyl-O-p-nitrophenyl phosphorothioate] is “miscible with methylene bispropionate in all proportions”.
Broadly, the inhibition of growth is the relative decrease from the control value, in per cent. For orientation: LD50 means the dose expected to kill half of the subjects tested. For `CCC(=O)OCOC(=O)CC` [Methylene Bispropionate], the “Weeks Effective” value in the data set on high moisture corn (3 Oz/Bu) and in the data set with high moisture corn (6 Oz/Bu) was more than 12 Weeks in each case. Besides, the “effectiveness in preservation of high moisture corn (in words)” value in the data set with high moisture corn (from Table II) is recorded as “remarkably superior to propionic acid in the preservation of high moisture corn”. Also, the “Fungal Rating” value is 0 in the data set with fungal growth (Hay (4" seedlings), […] Wt MBP, 7-8 days); 4 in the data set on fungal growth (Hay (4" seedlings), […] Wt MBP, 28-29 days); 0 with fungal growth (Hay (4" seedlings), […] Wt MBP, 2 days); 0 with fungal growth (Sorghum (33% H2 O), 0.51 % Wt MBP, 7-8 days); 0 with fungal growth (Sorghum (33% H2 O), 0.51 % Wt MBP, 28-29 days); 0 in the data set on fungal growth (Sorghum (33% H2 O), 0.51 % Wt MBP, 2 days). Also, the “Fungal Rating” value worked out at 0 with fungal growth (Soybeans (26% H2 O), 0.51 % Wt MBP, 7-8 days); 0 with fungal growth (Soybeans (26% H2 O), 0.51 % Wt MBP, 28-29 days); 0 in the data set with fungal growth (Soybeans (26% H2 O), 0.51 % Wt MBP, 2 days); 0 in the data set with fungal growth (Wheat (26% H2 O), 0.6 % Wt MBP, 7-8 days); 0 in the data set on fungal growth (Wheat (26% H2 O), 0.6 % Wt MBP, 28-29 days); 0 with fungal growth (Wheat (26% H2 O), 0.6 % Wt MBP, 2 days). The “Fungal Rating” value came out at 0 in the data set on fungal growth (Wood Chips (freshly cut), 1.4 % Wt MBP, 7-8 days); 0 in the data set with fungal growth (Wood Chips (freshly cut), 1.4 % Wt MBP, 28-29 days); 0 in the data set on fungal growth (Wood Chips (freshly cut), 1.4 % Wt MBP, 2 days). In addition, the “% Control All Species” value with All Species (1.0 Oz./100 Lbs.) is listed as 97%; in the data set with All Species (2.5 Oz./100 Lbs.) it was 100%; in the data set with All Species (6.4 Oz./100 Lbs.), 100%; in the data set on All Species (16 Oz./100 Lbs.) it was 100%. In addition, the “Conc. for 90% Control, Rhizopus sp.” value in the data set on Rhizopus sp. stood at 0.85 oz./100 lbs. For the same compound, the “Conc. for 90% Control, Fusarium sp.” value with Fusarium sp. was found to be 0.5 oz./100 lbs. Besides, the inhibition of growth at 0.16 oz/100 lb with Aspergillus niger [2] (Aspergillus niger, 336 h, 0.16 oz./100 lbs.) was found to be 99%. For the same compound, in the data set with Aspergillus niger [2] (corn seeds), the “Conc. for 90% Control, Aspergillus niger” value came out at 0.16 oz./100 lbs. In addition, in data set [3], the 50% lethal dose (LD50) came out at 2800 mg/kg. In addition, the MIC amounted to 1000 µg/mL (≈ 6.24 mM) in the data set on Candida albicans; 1000 µg/mL (≈ 6.24 mM) in the data set on Staphylococcus aureus; 6000 µg/mL (≈ 37.5 mM) in the data set with Escherichia coli; 700 µg/mL (≈ 4.37 mM) with Streptococcus pyogenes; 800 µg/mL (≈ 4.99 mM) in the data set with Aspergillus niger [4]; 800 µg/mL (≈ 4.99 mM) in data set [5]. Besides, the MIC stood at 7000 µg/mL (≈ 43.7 mM) in the data set on Pseudomonas aeruginosa and 8000 µg/mL (≈ 49.9 mM) in the data set on Bacillus subtilis.
For the compound `COP(=O)(NC(C)=O)SC` (stereo not drawn) [O,S-dimethylN-acetyl phosphoramidothioate], the “solubility in methylene bispropionate” value in data set [1] was determined as 5 percent by weight.
